One test concerns the target T1, mAHR (Mus musculus, UniProt P30561).
T1 construct: gene Ahr; full-length
T1 sequence (P30561 10-848): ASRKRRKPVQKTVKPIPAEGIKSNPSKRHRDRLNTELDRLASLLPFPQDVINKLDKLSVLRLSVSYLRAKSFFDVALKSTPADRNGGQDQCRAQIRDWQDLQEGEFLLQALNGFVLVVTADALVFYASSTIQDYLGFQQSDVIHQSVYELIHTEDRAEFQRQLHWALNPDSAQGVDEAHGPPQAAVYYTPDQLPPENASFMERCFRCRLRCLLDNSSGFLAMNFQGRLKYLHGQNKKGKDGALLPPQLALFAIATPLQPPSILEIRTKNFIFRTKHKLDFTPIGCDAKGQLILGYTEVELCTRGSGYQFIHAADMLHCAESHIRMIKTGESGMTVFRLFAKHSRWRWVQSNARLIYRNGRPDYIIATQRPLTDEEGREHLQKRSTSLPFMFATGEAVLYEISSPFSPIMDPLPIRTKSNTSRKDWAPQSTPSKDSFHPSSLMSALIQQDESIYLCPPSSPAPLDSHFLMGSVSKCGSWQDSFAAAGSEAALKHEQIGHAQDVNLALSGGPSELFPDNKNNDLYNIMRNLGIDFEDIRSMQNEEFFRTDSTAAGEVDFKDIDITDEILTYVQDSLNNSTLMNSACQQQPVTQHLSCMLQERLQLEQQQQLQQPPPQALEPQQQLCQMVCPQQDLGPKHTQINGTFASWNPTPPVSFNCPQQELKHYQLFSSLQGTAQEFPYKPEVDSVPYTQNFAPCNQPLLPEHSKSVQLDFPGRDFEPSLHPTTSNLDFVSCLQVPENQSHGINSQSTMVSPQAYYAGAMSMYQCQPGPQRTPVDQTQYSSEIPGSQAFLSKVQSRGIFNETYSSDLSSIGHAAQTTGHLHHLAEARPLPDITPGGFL
In words: DRE luciferase reporter assay in HEK293T expressing mAHR (agonist at […]). The class given is cell-based. The text has this: FICZ, βNF and BaP were supplied

The next test has as its target T2, dAHR PAS-B (Drosophila melanogaster, UniProt O61543, M284C/Y336L).
T2 construct: gene ss; PAS-B domain (residues 264–381)
As to the kind of experiment: label-free MST. The class given is binding.

These results are taken from publication PMC9585082, “Structural insight into the ligand binding mechanism of aryl hydrocarbon receptor” (Nature Communications, 2022).

Molecules are shown by their SMILES.

By Kd is commonly meant the equilibrium constant for the complex coming apart.

T2 sequence (O61543 entry or part of it M284C/Y336L): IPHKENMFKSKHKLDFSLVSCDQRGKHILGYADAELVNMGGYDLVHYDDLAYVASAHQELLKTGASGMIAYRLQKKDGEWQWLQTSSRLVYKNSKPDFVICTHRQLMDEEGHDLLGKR

Regarding `c1ccc2c(c1)cc1ccc3cccc4ccc2c1c34` [BaP], at mAHR, the “DRE luciferase reporter assay in HEK293T expressing mAHR (agonist at 200 nM)” value was “transactivation of mAHR in HEK293T cells in the presence or absence of agonists. FICZ, βNF and BaP were supplied”.

In the case of `O=Cc1c2[nH]c3ccccc3c2cc2[nH]c3ccccc3c12` [FICZ], the “DRE luciferase reporter assay in HEK293T expressing mAHR (agonist at 200 nM)” value at mAHR was “transactivation of mAHR in HEK293T cells in the presence or absence of agonists. FICZ, βNF and BaP were supplied”. At dAHR PAS-B, this molecule displayed a Kd of around 800 nM. As for `O=c1cc(-c2ccccc2)oc2ccc3ccccc3c12` [βNF], at mAHR, the “DRE luciferase reporter assay in HEK293T expressing mAHR (agonist at 500 nM)” value is “transactivation of mAHR in HEK293T cells in the presence or absence of agonists. FICZ, βNF and BaP were supplied”. On dAHR PAS-B, the Kd is around 400 nM.
